Measured values as given in PubChem BioAssay (NCI).
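Cells were grown in 96-well plates and exposed to each compound for 48 hours at five concentrations; endpoints were interpolated linearly between bracketing concentrations, or set to the highest concentration if not reached. Definition used: TGI = concentration required for complete inhibition of growth.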

Columns and labels:
Assay in all cases: NCI-60 cell line screen, 48 h
KM12 colon = tested on: KM12 colon
COLO 205 colon = tested on: COLO 205 colon
SK-MEL-2 melanoma = tested on: SK-MEL-2 melanoma
SK-OV-3 ovarian = tested on: SK-OV-3 ovarian
IGROV1 ovarian = tested on: IGROV1 ovarian
NCI/ADR-RES ovarian = tested on: NCI/ADR-RES ovarian
NCI-H23 lung = tested on: NCI-H23 lung
HCT-15 colon = tested on: HCT-15 colon
MOLT-4 leukemia = tested on: MOLT-4 leukemia
CCRF-CEM leukemia = tested on: CCRF-CEM leukemia
OVCAR-3 ovarian = tested on: OVCAR-3 ovarian

With `CC1=NNC(N)=N/C1=C\C(Sc1ccc(Cl)cc1)c1ccc([N+](=O)[O-])cc1` (stereo not given) the TGI (KM12 colon) was greater than 100 µM, the TGI (COLO 205 colon) was greater than 100 µM and the TGI (SK-MEL-2 melanoma) was greater than 100 µM. For the same molecule, the TGI (SK-OV-3 ovarian) was greater than 100 µM, the TGI (IGROV1 ovarian) was greater than 100 µM and the TGI (NCI/ADR-RES ovarian) was greater than 100 µM. For the same molecule, the TGI (NCI-H23 lung) was greater than 100 µM, the TGI (HCT-15 colon) was greater than 100 µM and the TGI (MOLT-4 leukemia) was greater than 100 µM. The TGI (CCRF-CEM leukemia) was greater than 100 µM.
With `Cc1cccc(N=NC(=O)NNc2cccc(C)c2C)c1C` the TGI (SK-MEL-2 melanoma) was 46.7 µM, the TGI (OVCAR-3 ovarian) was greater than 100 µM and the TGI (IGROV1 ovarian) was greater than 100 µM. For the same molecule, the TGI (NCI-H23 lung) was greater than 100 µM and the TGI (HCT-15 colon) was greater than 100 µM.
Molecule `Cc1nc(-c2cc3cc([N+](=O)[O-])ccc3oc2=O)cs1` has a TGI (KM12 colon) greater than 100 µM, a TGI (COLO 205 colon) greater than 100 µM and a TGI (SK-MEL-2 melanoma) greater than 100 µM. It also gave a TGI (SK-OV-3 ovarian) greater than 100 µM, a TGI (IGROV1 ovarian) greater than 100 µM and a TGI (HCT-15 colon) greater than 100 µM. For the same molecule, the TGI (MOLT-4 leukemia) was greater than 100 µM and the TGI (CCRF-CEM leukemia) was greater than 100 µM.
Molecule `O=C(N/N=C\c1cccc2c([N+](=O)[O-])cccc12)Nc1ccccc1` has a TGI (KM12 colon) of 36.1 µM, a TGI (COLO 205 colon) of 50.7 µM and a TGI (SK-MEL-2 melanoma) of 18.2 µM. The TGI (OVCAR-3 ovarian) was 29.4 µM, the TGI (IGROV1 ovarian) was 40.1 µM and the TGI (NCI/ADR-RES ovarian) was 32.3 µM. For the same molecule, the TGI (NCI-H23 lung) was 35.2 µM, the TGI (HCT-15 colon) was 25.5 µM and the TGI (MOLT-4 leukemia) was 41.7 µM. It also gave a TGI (CCRF-CEM leukemia) of 33.9 µM.
`CC12C(=O)CC(CC1=O)C2(C)C` gave a TGI (KM12 colon) greater than 100 µM, a TGI (COLO 205 colon) greater than 100 µM and a TGI (SK-MEL-2 melanoma) greater than 100 µM. For the same molecule, the TGI (OVCAR-3 ovarian) was greater than 100 µM, the TGI (SK-OV-3 ovarian) was greater than 100 µM and the TGI (IGROV1 ovarian) was greater than 100 µM. The TGI (NCI/ADR-RES ovarian) was greater than 100 µM, the TGI (HCT-15 colon) was greater than 100 µM and the TGI (MOLT-4 leukemia) was greater than 100 µM. The TGI (CCRF-CEM leukemia) was greater than 100 µM.
`N#CC(NC12CC3CC(CC(C3)C1)C2)c1ccccc1C(F)(F)F` (stereo not given) showed a TGI (KM12 colon) greater than 100 µM, a TGI (COLO 205 colon) greater than 100 µM and a TGI (SK-MEL-2 melanoma) greater than 100 µM. For the same molecule, the TGI (OVCAR-3 ovarian) was greater than 100 µM, the TGI (NCI-H23 lung) was greater than 100 µM and the TGI (HCT-15 colon) was greater than 100 µM. For the same molecule, the TGI (MOLT-4 leukemia) was greater than 100 µM and the TGI (CCRF-CEM leukemia) was greater than 100 µM.
Work on `NC(N)=N/N=C/c1c[nH]c2ccccc12` yielded a TGI (KM12 colon) greater than 100 µM, a TGI (COLO 205 colon) greater than 100 µM and a TGI (SK-MEL-2 melanoma) greater than 100 µM. For the same molecule, the TGI (OVCAR-3 ovarian) was greater than 100 µM, the TGI (SK-OV-3 ovarian) was greater than 100 µM and the TGI (IGROV1 ovarian) was greater than 100 µM. For the same molecule, the TGI (NCI-H23 lung) was greater than 100 µM, the TGI (HCT-15 colon) was greater than 100 µM and the TGI (MOLT-4 leukemia) was greater than 100 µM. It also gave a TGI (CCRF-CEM leukemia) greater than 100 µM.
`COCN(CCC1=CCCCC1)C(=O)OC` gave a TGI (KM12 colon) greater than 100 µM, a TGI (COLO 205 colon) greater than 100 µM and a TGI (SK-MEL-2 melanoma) greater than 100 µM. For the same molecule, the TGI (OVCAR-3 ovarian) was greater than 100 µM, the TGI (SK-OV-3 ovarian) was greater than 100 µM and the TGI (IGROV1 ovarian) was greater than 100 µM. It also gave a TGI (NCI/ADR-RES ovarian) greater than 100 µM, a TGI (NCI-H23 lung) greater than 100 µM and a TGI (HCT-15 colon) greater than 100 µM. For the same molecule, the TGI (MOLT-4 leukemia) was greater than 100 µM.
`COc1cc(C(=O)N(Cc2cccnc2)C(=S)N(Cc2cccnc2)C(=O)c2cc(OC)c(OC)c(OC)c2)cc(OC)c1OC` gave a TGI (KM12 colon) of 56.7 µM, a TGI (COLO 205 colon) greater than 100 µM and a TGI (OVCAR-3 ovarian) greater than 100 µM. For the same molecule, the TGI (SK-OV-3 ovarian) was greater than 100 µM, the TGI (NCI/ADR-RES ovarian) was greater than 100 µM and the TGI (NCI-H23 lung) was greater than 100 µM. It also gave a TGI (HCT-15 colon) greater than 100 µM, a TGI (MOLT-4 leukemia) greater than 100 µM and a TGI (CCRF-CEM leukemia) greater than 100 µM.
With `COC[C@@H](C[C@H]1O[C@@](O)([C@H](O)[C@@H]2C[C@H](OC)[C@@H](O)CC/C=C(C)/C=C/[C@@H](O[C@@H]3O[C@@H](C)[C@H](OC)[C@@H](O)[C@@H]3O)[C@H](C)/C=C(C)/C=C(C)/C=C(\C)C(=O)O2)[C@H](C)[C@@H](O)[C@H]1C)O[C@H]1C[C@](C)(O)[C@@H](O[C@H]2C[C@@H](OC)[C@H](O)[C@@H](C)O2)C(C)O1` (stereo not given in full) the TGI (KM12 colon) was greater than 100 µM, the TGI (COLO 205 colon) was greater than 100 µM and the TGI (SK-MEL-2 melanoma) was greater than 100 µM. The TGI (OVCAR-3 ovarian) was greater than 100 µM, the TGI (SK-OV-3 ovarian) was greater than 100 µM and the TGI (IGROV1 ovarian) was greater than 100 µM. The TGI (NCI/ADR-RES ovarian) was greater than 100 µM, the TGI (NCI-H23 lung) was greater than 100 µM and the TGI (HCT-15 colon) was greater than 100 µM. The TGI (MOLT-4 leukemia) was greater than 64.3 µM.
`Cc1ccc([N+](=O)[O-])cc1S(=O)(=O)Nc1ccc(C2=NNC(c3ccccc3)C2)cc1` (stereo not given) was tested, and the TGI (KM12 colon) was 34.4 µM, the TGI (COLO 205 colon) was 41.4 µM and the TGI (SK-MEL-2 melanoma) was 45.4 µM. It also gave a TGI (OVCAR-3 ovarian) of 20.4 µM, a TGI (SK-OV-3 ovarian) of 58.8 µM and a TGI (IGROV1 ovarian) greater than 100 µM. The TGI (NCI/ADR-RES ovarian) was 92.2 µM, the TGI (NCI-H23 lung) was 89.8 µM and the TGI (HCT-15 colon) was 62.1 µM. The TGI (MOLT-4 leukemia) was 39.8 µM.
